# Molecular target: PDE9A (Homo sapiens (Human), UniProt O76083)
# Experiment: PDE9A inhibitory activity, fluorescence polarization assay (IMAP-FP screening express kit)
# Format: biochemical
# Settings: enzyme PDE9A 5 ng/ml, Fl-cGMP substrate 100 nM, room temperature 1 hour
# Description: The inhibitory activity of the representative compounds according to the present invention against phosphodiesterase 9A was tested based on the polarization assay (IMAP-FP screening express kit) provided by MDS (MDS Analytical Technologies, Sunyvale, CA, USA). As a buffer solution, a reaction solution (a reaction solution containing 0.01% Tween 20 provided by MDS was diluted 5 times, then 5 mM DTT is added) and a polarization detection solution (binding solution A and B provided by MDS were mixed at a ratio of 3:1 and IMAP binding reagent 1/600 was added) were prepared. 100 μM of the substrate (Fl-cGMP substrate; MDS) and 3.6 μg/ml of the enzyme PDE9A (ab54113; abeam) were prepared. 3.6 μg/ml PDE9A and 100 μM substrate were diluted to 20 ng/ml (final reaction concentration: 5 ng/ml) and 400 nM (final reaction concentration: 100 nM), respectively. The buffer solution used for all dilution and preparation processes was 1× reaction solution with 1 mM DTT added, and the polarization detection solution was used to induce polarization at the end.
# The prepared samples were dispensed on black microplates (Multiwell 384 well plates, #3573, Corning Life Sciences, Lowell, MA, USA) using a 16-channel pipette (multi 16-channel, Finnpipette, Thermo Scientific, Essex, UK). The total reaction volume per well is 20 μl. At this time, 10 μl of 2% DMSO, 5 μl of substrate solution, and 5 μl of reaction solution were used as a negative control, and 10 μl of 2% DMSO, 5 μl of substrate solution, and 5 μl of PDE9A solution were used as a positive control. As the experimental group, 10 μl of the compound prepared in Example, 5 μl of the substrate solution, and 5 μl of the PDE9A solution were used. After pretreatment between the compound and the enzyme was performed for about […] before the enzyme-substrate reaction, 5 μl of cGMP was added to induce the enzyme reaction. During the reaction, each compound, enzyme, and substrate occupied 50%, 25%, and 25% of the total volume, respectively, and they were prepared at high concentrations of 2, 4, and 4 times, respectively, immediately before addition. After the enzymatic reaction, it was shaken lightly for 1 minute and the enzyme reaction was induced at room temperature for 1 hour. Then, 60 μl of a polarization detection solution prepared in advance was added to induce polarization.
# Nanoparticles composed of trivalent metal ions are mixed in the fluorescence detection solution, which combines with phosphoric acid expose by enzymatic reaction to increase the molecular weight and induce polarization. After leaving for 2 hours at room temperature, the polarization (Fluorescence Polarization, FP) value was measured using a multilabel counter (Envision, PerkinElmer, Turku, Finland) (emission wavelength: P-535 nm, S-535 nm, excitation wavelength: 480 nm), and the result was expressed as an IC50 value, which is the concentration of the compound that inhibited PDE9A by 50% in vitro (Table 2).
# Chain of PDE9A (O76083 whole entry): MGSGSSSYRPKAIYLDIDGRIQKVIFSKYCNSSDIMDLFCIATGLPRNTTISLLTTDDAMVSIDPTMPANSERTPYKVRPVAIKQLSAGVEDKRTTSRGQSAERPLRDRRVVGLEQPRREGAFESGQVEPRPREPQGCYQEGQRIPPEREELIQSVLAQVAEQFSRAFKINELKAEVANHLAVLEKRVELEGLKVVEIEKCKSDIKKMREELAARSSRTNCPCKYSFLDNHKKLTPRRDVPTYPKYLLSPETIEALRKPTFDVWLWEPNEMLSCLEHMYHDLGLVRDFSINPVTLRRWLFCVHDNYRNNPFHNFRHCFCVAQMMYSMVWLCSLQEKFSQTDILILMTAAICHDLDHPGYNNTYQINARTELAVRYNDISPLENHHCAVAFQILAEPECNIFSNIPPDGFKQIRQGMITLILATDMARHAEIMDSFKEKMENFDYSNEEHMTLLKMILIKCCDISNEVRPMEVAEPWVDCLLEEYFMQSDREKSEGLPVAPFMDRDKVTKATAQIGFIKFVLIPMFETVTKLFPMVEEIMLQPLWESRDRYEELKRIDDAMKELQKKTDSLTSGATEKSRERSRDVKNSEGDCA
row,Molecule,IC50 [nM]
1,"CCSc1nnc(NC(=O)CSc2nc3c(cnn3C3CC3)c(=O)[nH]2)s1 [Example 40, N-(5-(ethylthio)-1,3,4-thiadiazol-2-yl)-2-((1-cyclopropyl-4-oxo-4,5-dihydro-1H-pyrazolo[3,4-d]pyrimidin-6-yl)thio)acetamide]",39
2,"CC(C)(C)c1nnc(NC(=O)CSc2nc3c(cnn3-c3ccccc3)c(=O)[nH]2)s1 [Example 22, N-(5-(tertiary-butyl)-1,3,4-thiadiazol-2-yl)-2-((4-oxo-1-phenyl-4,5-dihydro-1H-pyrazolo[3,4-d]pyrimidin-6-yl)thio)acetamide]",100
3,"CCSc1nnc(N(C)C(=O)CSc2nc3c(cnn3-c3ccccc3)c(=O)[nH]2)s1 [Example 18, N-(5-(ethylthio)-1,3,4-thiadiazol-2-yl)-N-methyl-2-((4-oxo-1-phenyl-4,5-dihydro-1H-pyrazolo[3,4-d]pyrimidin-6-yl)thio)acetamide]",470
4,"Cc1ccc(-c2nnc(NC(=O)C(C)Sc3nc4c(cnn4-c4ccccc4)c(=O)[nH]3)s2)cc1 (stereo not drawn) [Example 20, 2-((4-oxo-1-phenyl-4,5-dihydro-1H-pyrazolo[3,4-d]pyrimidin-6-yl)thio)-N-(5-(p-tolyl)-1,3,4-thiadiazol-2-yl)propanamide]",19
5,"O=C(CSc1nc2c(cnn2C2CCC(F)(F)CC2)c(=O)[nH]1)Nc1nnc(Cl)s1 [Example 1, 2-((1-(4,4-difluorocyclohexyl)-4-oxo-4,5-dihydro-1H-pyrazolo[3,4-d]pyrimidin-6-yl)thio)-N-(5-chloro-1,3,4-thiadiazol-2-yl)acetamide]",0.4
6,"CCSc1nnc(NC(=O)CSc2nc3c(cnn3C3CCSCC3)c(=O)[nH]2)s1 [Example 29, N-(5-(ethylthio)-1,3,4-thiadiazol-2-yl)-2-((4-oxo-1-(tetrahydro-2H-thiopyran-4-yl)-4,5-dihydro-1H-pyrazolo[3,4-d]pyrimidin-6-yl)thio)acetamide]",0.3
7,"O=C(CSc1nc2c(cnn2C2CCC(F)(F)CC2)c(=O)[nH]1)Nc1nnc(Br)s1 [Example 21, 2-((1-(4,4-difluorocyclohexyl)-4-oxo-4,5-dihydro-1H-pyrazolo[3,4-d]pyrimidin-6-yl)thio)-N-(5-bromo-1,3,4-thiadiazol-2-yl)acetamide]",0.4
8,"CCSc1nnc(NC(=O)C(Sc2nc3c(cnn3-c3ccccc3)c(=O)[nH]2)c2ccccc2)s1 (stereo not drawn) [Example 26, N-(5-(ethylthio)-1,3,4-thiadiazol-2-yl)-2-((4-oxo-1-phenyl-4,5-dihydro-1H-pyrazolo[3,4-d]pyrimidin-6-yl)thio)-2-phenylacetamide]",9
9,"CCc1nnc(NC(=O)CSc2nc3c(cnn3-c3ccccc3)c(=O)[nH]2)s1 [Example 5, N-(5-ethyl-1,3,4-thiadiazol-2-yl)-2-((4-oxo-1-phenyl-4,5-dihydro-1H-pyrazolo[3,4-d]pyrimidin-6-yl)thio)acetamide]",180
10,"O=C(CSc1nc2c(cnn2C2CCCCC2)c(=O)[nH]1)Nc1nnc(Br)s1 [Example 35, N-(5-bromo-1,3,4-thiadiazol-2-yl)-2-((4-oxo-1-cyclohexyl-4,5-dihydro-1H-pyrazolo[3,4-d]pyrimidin-6-yl)thio)acetamide]",1
11,"Cc1nnc(NC(=O)CSc2nc3c(cnn3-c3ccccc3)c(=O)[nH]2)s1 [Example 3, N-(5-methyl-1,3,4-thiadiazol-2-yl)-2-((4-oxo-1-phenyl-4,5-dihydro-1H-pyrazolo[3,4-d]pyrimidin-6-yl)thio)acetamide]",340
12,"O=C(CSc1nc2c(cnn2C2CCOCC2)c(=O)[nH]1)Nc1nnc(Cl)s1 [Example 36, N-(5-chloro-1,3,4-thiadiazol-2-yl)-2-((4-oxo-1-(tetrahydro-2H-pyran-4-yl)-4,5-dihydro-1H-pyrazolo[3,4-d]pyrimidin-6-yl)thio)acetamide]",0.7
13,"CC(C)n1ncc2c(=O)[nH]c(SCC(=O)Nc3nnc(Br)s3)nc21 [Example 38, N-(5-bromo-1,3,4-thiadiazol-2-yl)-2-((1-isopropyl-4-oxo-4,5-dihydro-1H-pyrazolo[3,4-d]pyrimidin-6-yl)thio)acetamide]",3
14,"O=C(CSc1nc2c(cnn2C2CCOCC2)c(=O)[nH]1)Nc1nnc(Br)s1 [Example 33, N-(5-bromo-1,3,4-thiadiazol-2-yl)-2-((4-oxo-1-(tetrahydro-2H-pyran-4-yl)-4,5-dihydro-1H-pyrazolo[3,4-d]pyrimidin-6-yl)thio)acetamide]",0.4
15,"Cc1nnc(NC(=O)C(C)Sc2nc3c(cnn3-c3ccccc3)c(=O)[nH]2)s1 (stereo not drawn) [Example 10, N-(5-methyl-1,3,4-thiadiazol-2-yl)-2-((4-oxo-1-phenyl-4,5-dihydro-1H-pyrazolo[3,4-d]pyrimidin-6-yl)thio)propanamide]",150
16,"N-(5-(isopropylthio)-1,3,4-thiadiazol-2-yl)-2-((4-oxo-1-phenyl-4,5-dihydro-1H-pyrazolo[3,4-d]pyrimidin-6-yl)thio)acetamide [Example 14]",9
17,"CCSc1nnc(NC(=O)C(C)Sc2nc3c(cnn3C3CCOCC3)c(=O)[nH]2)s1 (stereo not drawn) [Example 45, N-(5-(ethylthio)-1,3,4-thiadiazol-2-yl)-2-((4-oxo-1-(tetrahydro-2H-pyran-4-yl)-4,5-dihydro-1H-pyrazolo[3,4-d]pyrimidin-6-yl)thio)propanamide]",0.1
18,"CCSc1nnc(NC(=O)CSc2nc3c(cnn3C3CCC(F)(F)CC3)c(=O)[nH]2)s1 [Example 19, 2-((1-(4,4-difluorocyclohexyl)-4-oxo-4,5-dihydro-1H-pyrazolo[3,4-d]pyrimidine-6-yl)thio)-N-(5-(ethylthio)-1,3,4-thiadiazol-2-yl)acetamide]",0.6
19,"CC(C)n1ncc2c(=O)[nH]c(SCC(=O)Nc3nnc(Cl)s3)nc21 [Example 43, N-(5-chloro-1,3,4-thiadiazol-2-yl)-2-((1-isopropyl-4-oxo-4.5-dihydro-1H-pyrazolo[3,4-d]pyrimidin-6-yl)thio)acetamide]",3
20,"CC(Sc1nc2c(cnn2C2CCC(F)(F)CC2)c(=O)[nH]1)C(=O)Nc1nnc(Cl)s1 (stereo not drawn) [Example 48, N-(5-chloro-1,3,4-thiadiazol-2-yl)-2-((1-(4,4-difluorocyclohexyl)-4-oxo-4,5-dihydro-1H-pyrazolo[3,4-d]pyrimidin-6-yl)thio)propanamide]",0.3
21,"CC(Sc1nc2c(cnn2-c2ccccc2)c(=O)[nH]1)C(=O)Nc1nnc(Br)s1 (stereo not drawn) [Example 12, N-(5-bromo-1,3,4-thiadiazol-2-yl)-2-((4-oxo-1-phenyl-4,5-dihydro-1H-pyrazolo[3,4-d]pyrimidin-6-yl)thio)propanamide]",7
22,"O=C(CSc1nc2c(cnn2C2CCSCC2)c(=O)[nH]1)Nc1nnc(Br)s1 [Example 32, N-(5-bromo-1,3,4-thiadiazol-2-yl)-2-((4-oxo-1-(tetrahydro-2H-thiopyran-4-yl)-4,5-dihydro-1H-pyrazolo[3,4-d]pyrimidin-6-yl)thio)acetamide]",0.6
23,"O=C(CSc1nc2c(cnn2C2CCSCC2)c(=O)[nH]1)Nc1nnc(Cl)s1 [Example 39, N-(5-chloro-1,3,4-thiadiazol-2-yl)-2-((4-oxo-1-(tetrahydro-2H-thiopyran-4-yl)-4,5-dihydro-1H-pyrazolo[3,4-d]pyrimidin-6-yl)thio)acetamide]",1
24,"O=C(CSc1nc2c(cnn2-c2ccccc2)c(=O)[nH]1)Nc1nnc(-c2ccccc2)s1 [Example 25, N-(5-phenyl-1,3,4-thiadiazol-2-yl)-2-((4-oxo-1-phenyl-4,5-dihydro-1H-pyrazolo[3,4-d]pyrimidin-6-yl)thio)acetamide]",12
25,"O=C(CSc1nc2c(cnn2-c2ccccc2)c(=O)[nH]1)Nc1nncs1 [Example 4, 2-((4-oxo-1-phenyl-4,5-dihydro-1H-pyrazolo[3,4-d]pyrimidin-6-yl)thio)-N-(1,3,4-thiadiazol-2-yl)acetamide]",230
26,"O=C(CSc1nc2c(cnn2C2CC2)c(=O)[nH]1)Nc1nnc(Cl)s1 [Example 44, N-(5-chloro-1,3,4-thiadiazol-2-yl)-2-((1-cyclopropyl-4-oxo-4,5-dihydro-1H-pyrazolo[3,4-d]pyrimidin-6-yl)thio)acetamide]",36
27,O=C(CSc1nc2c(cnn2-c2ccccc2)c(=O)[nH]1)Nc1nnc(SCc2ccccc2)s1 [Example 6],14
